Measured values: article PMC3214022, “Plasmodium falciparum Parasites Are Killed by a Transition State Analogue of Purine Nucleoside Phosphorylase in a Primate Animal Model” (PLoS ONE, 2011)

Assay: Weights, CBC, blood chemistry and signs of toxicity, Table S1 sheet PD-2 (infected Aotus, twice a day for seven days)
Format: in vivo, Aotus lemurinus lemurinus
Conditions: oral 10 mg/kg twice a day/7 days
Procedure: Laboratory bred Aotus lemurinus lemurinus monkeys (0.75–0.89 kg) were maintained as described. […] Blood samples were collected before the treatment started (t = 0), 0.05 h, 0.5 h, 1 h, 2 h, 6 h, 24 h, 48 h, and 6, 12 and 18 days after the first dose from each monkey and processed as described below. Pharmacokinetic parameters were calculated using PKSolver. For efficacy studies, Aotus monkeys were inoculated intravenously with 5×10^6 parasites of the FVO strain of P. falciparum in an approved treatment protocol. […] Parasitaemia was determined by Giemsa-stained thick blood smears prepared daily from the marginal ear vein [41]. Blood samples were collected from each monkey and transferred to tubes containing lithium heparin, centrifuged and both plasma and blood cells were frozen at −80 °C until analysis. Animals received a physical examination and blood chemistry profiles were monitored after treatment as described previously. Any monkey not responding appropriately to treatment was cured of its infection with mefloquine (40 mg kg^−1). […] The day of clearance is defined as the first of three consecutive days in which the thick blood films are parasite negative. The day of recrudescence is the first of three consecutive days of positive thick blood films after a period of clearance. Suppression is defined as a transient decrease in the parasite count post-treatment without clearance.

Nc1nc2c(CN3CC(O)C(CO)C3)c[nH]c2c(=O)[nH]1 (stereo not shown) [BCX4945, 4′-deaza-1′-aza-2′-deoxy-1′-(9-methylene)-Immucillin-G]
WEIGHT (26027 Male (ITM3), day 15): 890 g
Blood Urea Nitrogen (26027 Male (ITM3), day 18): 20.6 mg/dL
Creatine (26027 Male (ITM3), day 18): 0.5 mg/dL
Erythrocytes (26027 Male (ITM3), day 18): 4.74e+06 µL⁻¹
Glutamate Pyruvate Transaminase (26027 Male (ITM3), day 18): 27.5 U/L
Granulocytes (%) (26027 Male (ITM3), day 18): 37%
Granulocytes (x 103/ul) (26027 Male (ITM3), day 18): 3 x 103/ul
Hematocrit (26027 Male (ITM3), day 18): 39.9%
Hemoglobin (26027 Male (ITM3), day 18): 14.1 g/dL
Leucocytes (26027 Male (ITM3), day 18): 8100 µL⁻¹
Lymphocytes (%) (26027 Male (ITM3), day 18): 58.1%
Lymphocytes (x 103/ul) (26027 Male (ITM3), day 18): 4.7 x 103/ul
Mean Corpuscular Hemoglobin (26027 Male (ITM3), day 18): 29.9 pg
Mean Corpuscular Volume (26027 Male (ITM3), day 18): 84.3 fL
Mean Hemoglobin Content (26027 Male (ITM3), day 18): 35.4 g/dL
Mean Platelet Volume (26027 Male (ITM3), day 18): 11.7 fL
Monocytes (%) (26027 Male (ITM3), day 18): 4.9%
Monocytes (x 103/ul) (26027 Male (ITM3), day 18): 0.4 x 103/ul
Platelets (26027 Male (ITM3), day 18): 208000 µL⁻¹
Red Cell Distribution Width (26027 Male (ITM3), day 18): 17.7%
Reticulocytes (26027 Male (ITM3), day 18): 1.9%
WEIGHT (26027 Male (ITM3), day 18): 900 g
Erythrocytes (26027 Male (ITM3), day 25): 4.04e+06 µL⁻¹
Granulocytes (%) (26027 Male (ITM3), day 25): 17.2%
Granulocytes (x 103/ul) (26027 Male (ITM3), day 25): 2.5 x 103/ul
Hematocrit (26027 Male (ITM3), day 25): 35.7%
Hemoglobin (26027 Male (ITM3), day 25): 12.2 g/dL
Leucocytes (26027 Male (ITM3), day 25): 14500 µL⁻¹
Lymphocytes (%) (26027 Male (ITM3), day 25): 74.8%
Lymphocytes (x 103/ul) (26027 Male (ITM3), day 25): 10.8 x 103/ul
Mean Corpuscular Hemoglobin (26027 Male (ITM3), day 25): 30.1 pg
Mean Corpuscular Volume (26027 Male (ITM3), day 25): 88.4 fL
Mean Hemoglobin Content (26027 Male (ITM3), day 25): 34 g/dL
Mean Platelet Volume (26027 Male (ITM3), day 25): 13.3 fL
Monocytes (%) (26027 Male (ITM3), day 25): 8%
Monocytes (x 103/ul) (26027 Male (ITM3), day 25): 1.2 x 103/ul
Platelets (26027 Male (ITM3), day 25): 118000 µL⁻¹
Red Cell Distribution Width (26027 Male (ITM3), day 25): 17.3%
Reticulocytes (26027 Male (ITM3), day 25): 3.1%
WEIGHT (26027 Male (ITM3), day 25): 888 g
Blood Urea Nitrogen (26027 Male (ITM3), day -10): 18.35 mg/dL
Creatine (26027 Male (ITM3), day -10): 0.5 mg/dL
Erythrocytes (26027 Male (ITM3), day -10): 5.73e+06 µL⁻¹
Glutamate Pyruvate Transaminase (26027 Male (ITM3), day -10): 23.9 U/L
Granulocytes (%) (26027 Male (ITM3), day -10): 15.9%
Granulocytes (x 103/ul) (26027 Male (ITM3), day -10): 1.6 x 103/ul
Hematocrit (26027 Male (ITM3), day -10): 46.1%
Hemoglobin (26027 Male (ITM3), day -10): 17.0 g/dL
Leucocytes (26027 Male (ITM3), day -10): 10200 µL⁻¹
Lymphocytes (%) (26027 Male (ITM3), day -10): 78%
Lymphocytes (x 103/ul) (26027 Male (ITM3), day -10): 8 x 103/ul
Mean Corpuscular Hemoglobin (26027 Male (ITM3), day -10): 29.6 pg
Mean Corpuscular Volume (26027 Male (ITM3), day -10): 80.5 fL
Mean Hemoglobin Content (26027 Male (ITM3), day -10): 36.8 g/dL
Mean Platelet Volume (26027 Male (ITM3), day -10): 11.9 fL
Monocytes (%) (26027 Male (ITM3), day -10): 6.1%
Monocytes (x 103/ul) (26027 Male (ITM3), day -10): 0.6 x 103/ul
Platelets (26027 Male (ITM3), day -10): 253000 µL⁻¹
Red Cell Distribution Width (26027 Male (ITM3), day -10): 11.7%
Reticulocytes (26027 Male (ITM3), day -10): 1.1%
WEIGHT (26027 Male (ITM3), day -10): 895 g
Blood Urea Nitrogen (26047 Female (ITM1), day 8): 18.65 mg/dL
Creatine (26047 Female (ITM1), day 8): 0.539 mg/dL
Erythrocytes (26047 Female (ITM1), day 8): 4.63e+06 µL⁻¹
Glutamate Pyruvate Transaminase (26047 Female (ITM1), day 8): 13.2 U/L
Granulocytes (%) (26047 Female (ITM1), day 8): 10%
Granulocytes (x 103/ul) (26047 Female (ITM1), day 8): 1.3 x 103/ul
Hematocrit (26047 Female (ITM1), day 8): 36.7%
Hemoglobin (26047 Female (ITM1), day 8): 13.2 g/dL
Leucocytes (26047 Female (ITM1), day 8): 12900 µL⁻¹
Lymphocytes (%) (26047 Female (ITM1), day 8): 74.5%
Lymphocytes (x 103/ul) (26047 Female (ITM1), day 8): 9.6 x 103/ul
Mean Corpuscular Hemoglobin (26047 Female (ITM1), day 8): 28.5 pg
Mean Corpuscular Volume (26047 Female (ITM1), day 8): 79.3 fL
Mean Hemoglobin Content (26047 Female (ITM1), day 8): 35.9 g/dL
Mean Platelet Volume (26047 Female (ITM1), day 8): 9.7 fL
Monocytes (%) (26047 Female (ITM1), day 8): 15.5%
Monocytes (x 103/ul) (26047 Female (ITM1), day 8): 2 x 103/ul
Platelets (26047 Female (ITM1), day 8): 297000 µL⁻¹
Red Cell Distribution Width (26047 Female (ITM1), day 8): 12.5%
Reticulocytes (26047 Female (ITM1), day 8): 2.8%
WEIGHT (26047 Female (ITM1), day 8): 814 g
Blood Urea Nitrogen (26047 Female (ITM1), day 12): 10.55 mg/dL
Creatine (26047 Female (ITM1), day 12): 0.5 mg/dL
Erythrocytes (26047 Female (ITM1), day 12): 4.11e+06 µL⁻¹
Glutamate Pyruvate Transaminase (26047 Female (ITM1), day 12): 27.3 U/L
Granulocytes (%) (26047 Female (ITM1), day 12): 21.3%
Granulocytes (x 103/ul) (26047 Female (ITM1), day 12): 3.6 x 103/ul
Hematocrit (26047 Female (ITM1), day 12): 32.7%
Hemoglobin (26047 Female (ITM1), day 12): 11.6 g/dL
Leucocytes (26047 Female (ITM1), day 12): 16800 µL⁻¹
